Data from patent US8399689B2, “Chrysophaentin antimicrobial compounds that inhibit FtsZ protein” (The United States of America, as represented by the …, priority 2010, dated 2013).
Values after ≈ are worked out from the molar mass of the structure shown. Like-named read-outs stand apart in the source and are kept apart here.

Assays:
[1] = tested on: methicillin-resistant S. aureus (MRSA, ATCC BAA-41); assay: Agar disk diffusion assay, MRSA; type: cell-based, Staphylococcus aureus; details: Lowest concentrations leading to 8-10 mm zones of inhibition
Method: (§1) Compounds 1-8 were tested for antimicrobial activity against Staphylococcus aureus (SA, ATCC 25923), methicillin-resistant S. aureus (MRSA, ATCC BAA-41), multidrug-resistant S. aureus (MDRSA, ATCC BAA-44), Enterococcus faecium (EF, ATCC 49032), vancomycin-resistant E. Faecium (VRE, ATCC 700221), and Bacillus subtilis (ATCC 49343) using a modified disk diffusion assay and microbroth liquid dilution assays. For disk diffusion assays, agar plates seeded with suspensions of bacteria were prepared by adding 500 μL of a 24 h culture of bacteria to 100 mL of autoclaved Mueller Hinton II agar and cooled to 55° C. Seeded liquid agar (10 mL) was transferred immediately to square Petri dishes and allowed to cool for 1 h. Control drugs used for each microorganism included kanamycin (50 μg) for S. aureus, and nitrofurantoin (25 μg) for MRSA. Following incubation at 37° C. for 18 h, zones of inhibition were measured. MICso values for compounds 1 and 4-8 were determined using a microbroth dilution assay outlined in the Clinical and Laboratory Standards Institute methods for susceptibility tests for bacteria that grow aerobically. Briefly, single bacterial colonies were used to inoculate 4 mL of Trypticase Soy broth (BD) for overnight growth and inoculum for each were diluted to 5×10^5 CFU/mL using the 0.5 McFarland standard. In a 96 well plate (Costar, round bottom), control antibiotics (oxacillin for SA and MRSA, vancomycin for EF and VRE, chloramphenicol for B. subtilis) or natural product inhibitors were added to Muller Hinton II broth (for S. aureus, MRSA, and B. subtilis) or 10% brain heart infusion broth (for E. faecium and VRE) in the first column of the well plates, and serially diluted across the plate, reserving wells for a positive growth control (no treatment). 10 μL of diluted bacteria were added to all wells with the exception of those kept for broth blanks (MHII or brain heart infusion broth only). Plates were incubated at 37° C. overnight and read at absorbance 600 nm on a Molecular Devices plate reader. Growth curves were plotted and ICso values obtained using Kalidagraph software.

[2] = tested on: Enterococcus faecium (EF, ATCC 49032); assay: Microbroth dilution assay, E. faecium; type: cell-based; details: concentration at which growth is reduced by 50%; for MIC50: Enterococcus faecium, ATCC49032, microbroth dilution, read-out: MIC50 (μg/mL) E. faecium
Method: as §1

[3] = tested on: Staphylococcus aureus (SA, ATCC 25923); assay: Agar disk diffusion assay, S. aureus; type: cell-based; details: Lowest concentrations leading to 8-10 mm zones of inhibition
Method: as §1

[4] = tested on: Gram-positive pathogens (S. aureus, B. subtilis, E. faecium, MRSA, MDRSA, VREF); assay: Disk diffusion and microbroth dilution assays, strains taken together; type: cell-based
Source text: Solid agar disk diffusion and microbroth dilution assays were used to evaluate the antimicrobial activities of compounds 1, hexaacetate 1a, and 4-8 toward clinically relevant, Gram-positive pathogens, including the drug-susceptible bacteria Staphylococcus aureus, Bacillus subtilis and Enterococcus faecium, and drug-resistant strains methicillin-resistant S. aureus (MRSA), multidrug-resistant S. aureus (MDRSA), and vancomycin-resistant E. faecium (VREF) (see Table 7, Example 2).
as §1, with “In a 96 well plate (Costar, round bottom), control antibiotics (oxacillin for SA and MRSA, vancomycin for EF and VRE, chloramphenicol for B. subtilis) or natural product inhibitors were added to Muller Hinton II broth (for S. aureus, MRSA, and B. subtilis) or 10% brain heart infusion broth (for E. faecium and VRE) in the first column of the well plates, and serially diluted across the plate, reserving wells for a positive growth control (no treatment). 10 μL of diluted bacteria were added to all wells with the exception of those kept for broth blanks (MHII or brain heart infusion broth only).” left out, “Growth curves were plotted and ICso values obtained using Kalidagraph software.” left out

[5] = tested on: Enterococcus faecium (EF, ATCC 49032); assay: Agar disk diffusion assay, E. faecium; type: cell-based; details: Lowest concentrations leading to 8-10 mm zones of inhibition
Method: as §1

[6] = tested on: vancomycin-resistant E. Faecium (VRE, ATCC 700221); assay: Microbroth dilution assay, VREF; type: cell-based, Enterococcus faecium; details: for MIC50: Enterococcus faecium, read-out: MIC50 (μg/mL) VREF
Method: as §1

[7] = tested on: Staphylococcus aureus (SA, ATCC 25923); assay: Microbroth dilution assay, S. aureus; type: cell-based; details: for MIC50: Staphylococcus aureus
Method: as §1

[8] = tested on: vancomycin-resistant E. Faecium (VRE, ATCC 700221); assay: Agar disk diffusion assay, VREF; type: cell-based, Enterococcus faecium; details: Lowest concentrations leading to 8-10 mm zones of inhibition
Method: as §1

[9] = tested on: methicillin-resistant S. aureus (MRSA, ATCC BAA-41); assay: Microbroth dilution assay, MRSA; type: cell-based, Staphylococcus aureus; details: for MIC50: Staphylococcus aureus, read-out: MIC50 (μg/mL) MRSA
Method: as §1

tubulin = assay: Tubulin polymerization assay; type: biochemical; details: chrysophaentin 1 at 150 μM; paclitaxel, nocodazole at standardized concentrations
[10] = microbroth dilution, concentration at which growth is reduced by 50%
[11] = ATCC25923, microbroth dilution, concentration at which growth is reduced by 50%, read-out: MIC50 (μg/mL) S. aureus
[12] = ATCC25923, read-out: MIC50 (μg/mL) S. aureus

SMILES	Agar disk diffusion (μg/disk) MRSA [1]	MIC50 [2]	Agar disk diffusion (μg/disk) S. aureus [3]	fold change in MIC50 versus chrysophaentin 1 ([4]; all four strains)	Agar disk diffusion (μg/disk) E. faecium [5]	MIC50 [6, 10]	MIC50 [7, 11]	Agar disk diffusion (μg/disk) VREF [8]	MIC50 [9, 10]	MIC50 (μg/mL) E. faecium ([2]; microbroth dilution)	MIC50 (μg/mL) VREF [6, 10]	MIC50 [7, 12]	potency relative to compound 7 [4]	MIC50 (μg/mL) S. aureus [7, 10]	MIC50 (μg/mL) MRSA [9, 10]	MIC50 [6]	MIC50 [9]	tubulin polymerization velocity v (tubulin)
Oc1cc(O)c2c(c1)C/C(Cl)=C\Cc1cc(c(Br)cc1O)Oc1c(O)cc(cc1O)C/C(Cl)=C\Cc1cc(c(Br)cc1O)O2 [Compound 4, chrysophaentin 4]	25 μg/disk	> 50 µg/mL	25 μg/disk	~12 fold	25 μg/disk	> 25 µg/mL	> 25 µg/mL	25 μg/disk	19 ± 5.9 µg/mL (≈ 24.8 µM)									
Oc1cc(O)cc(C/C(Cl)=C\Cc2cc(Oc3c(O)cc(C/C(Cl)=C\Cc4cc(O)c(Cl)cc4O)cc3O)c(Cl)cc2O)c1 [Compound 5, chrysophaentin 5]	10 μg/disk	> 25 µg/mL	25 μg/disk		25 μg/disk	> 25 µg/mL		25 μg/disk	8.9 ± 2.8 µg/mL (≈ 13.1 µM)	>25 µg/mL	>25 µg/mL	10.5 ± 3.8 µg/mL (≈ 15.4 µM)						
Oc1cc(Cl)c2cc1C/C=C(/Cl)Cc1cc(O)c(c(O)c1)Oc1cc(c(O)cc1Cl)C/C=C(/Cl)Cc1cc(O)c(c(O)c1)O2 [Compound 6, chrysophaentin 6]	10 μg/disk	> 25 µg/mL	10 μg/disk		10 μg/disk	~9.5 µg/mL (≈ 14 µM)	4 to 6 µg/mL (≈ 5.9 to 8.85 µM)	10 μg/disk	4 to 6 µg/mL (≈ 5.9 to 8.85 µM)		9.5 ± 3.0 µg/mL (≈ 14 µM)		at least 3 ×	5.3 ± 1.9 µg/mL (≈ 7.81 µM)	4.2 ± 1.2 µg/mL (≈ 6.19 µM)			
Oc1cc(Cl)c2cc1C/C=C(/Cl)Cc1cc(O)c(c(O)c1)Oc1cc(c(O)cc1Br)C/C=C(/Cl)Cc1cc(O)c(c(O)c1)O2 [Compound 7, chrysophaentin 7]	NA (NA, no zone of inhibition observed at 25 μg/disk)	> 50 µg/mL	NA (NA, no zone of inhibition observed at 25 μg/disk)		NA (NA, no zone of inhibition observed at 25 μg/disk)			NA (NA, no zone of inhibition observed at 25 μg/disk)				16.6 ± 5.3 µg/mL (≈ 23 µM)				24.6 ± 7.3 µg/mL (≈ 34 µM)	12.3 ± 3.1 µg/mL (≈ 17 µM)	
Oc1cc(Cl)c2cc1C/C=C(/Cl)Cc1cc(O)c(c(O)c1Br)Oc1cc(c(O)cc1Cl)C/C=C(/Cl)Cc1cc(O)c(c(O)c1)O2 [Compound 8, chrysophaentin 8]		> 25 µg/mL				~9.5 µg/mL (≈ 12.5 µM)	4 to 6 µg/mL (≈ 5.28 to 7.92 µM)		4 to 6 µg/mL (≈ 5.28 to 7.92 µM)									
COC(=O)Nc1nc2ccc(C(=O)c3cccs3)cc2[nH]1 [nocodazole, reference compound]																		12 min⁻¹
CC(=O)O[C@H]1C(=O)[C@@]2(C)[C@H]([C@H](OC(=O)c3ccccc3)[C@]3(O)C[C@H](OC(=O)[C@H](O)[C@@H](NC(=O)c4ccccc4)c4ccccc4)C(C)=C1C3(C)C)[C@]1(OC(C)=O)CO[C@@H]1C[C@@H]2O [paclitaxel, reference compound]																		80 min⁻¹
